PubChem BioAssay AID720605 (Broad Institute, 2013)

Test system: U-251 glioblastoma viability, Alamar Blue, 8-48 h
Assay: U-251 glioblastoma cell viability loss, dose response, HRAS target identification, Alamar Blue fluorescence, 8/24/48 h, dry powder (AID 720605)

| Structure (SMILES) | AC50 (measured here: 8 h treatment) | AC50 (measured here: 24 h treatment) | AC50 (measured here: 48 h treatment) |
| --- | --- | --- | --- |
| C#CCCCC(=O)NCCOCCOCCOc1ccc(N(C(=O)CCl)C(C(=O)NCCc2ccccc2)c2cccs2)cc1Cl (stereo not given) | 1990 nM | 920 nM | 855 nM |
| CC(C)(C)OC(=O)NCCOCCOCCOc1ccc(N(C(=O)CCl)C(C(=O)NCCc2ccccc2)c2cccs2)cc1Cl (stereo not given) | 297 nM | 229 nM | 330 nM |
| Cc1onc(C(=O)N2CCN(C(c3ccc(Cl)cc3)c3ccc(Cl)cc3)CC2)c1[N+](=O)[O-] | 383 nM | 359 nM | 293 nM |
| COC(=O)c1ccc([C@@H]2c3[nH]c4ccccc4c3C[C@@H](C(=O)OC)N2C(=O)CCl)cc1 | 14.4 nM | 42.7 nM | 45.4 nM |
| COc1ccc(N(C(=O)CCl)C(C(=O)NCCc2ccccc2)c2cccs2)cc1Cl (stereo not given) | 66.3 nM | 54.3 nM | 51 nM |
